Among the data in PubChem BioAssay (NCI) are TGI and GI50 values, retold here.

“And” between values parts separate entries of the source, which are not always exact repeats. Identical values can stand only once.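 Briefly, cells in 96-well plates were exposed to five compound concentrations for 48 h, and endpoints were estimated by linear interpolation. At the GI50, growth is halved. Definition used: TGI = concentration required for complete inhibition of growth.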

Holding throughout (experiment): NCI-60 cell line screen, 48 h
The test system of assay [1] is DMS 114 small cell lung.
The subject of assay [2] is LXFL 529 NSCLC.
Assay [3] deals with RXF-631 renal.
Assay [4] deals with HOP-18 NSCLC.
The subject of assay [5] is M19-MEL melanoma.
Assay [6] concerns DLD-1 colon.
The subject of assay [7] is KM20L2 colon.
Assay [8] relates to MDA-N.
Assay [9] concerns T-47D breast.

Consider `Nc1cn(C2OC(CC(c3ccccc3)(c3ccccc3)c3ccccc3)C(O)C2O)c(=O)[nH]c1=O` (stereo not given), for which the TGI in [1] was 35.4 µM; in [2] it was 91.8 µM; in assay [3], above 100 µM; in assay [4], 67.7 µM; in assay [5], 34.9 µM; in [6], 54.6 µM. In [7], this molecule gave a TGI of 42.1 µM.

On to `NC1=NN(c2ccccc2)C(=O)C1C(=O)C(=O)Nc1ccc(Cl)cc1` (stereo not given), for which the TGI in assay [1], in [2], in [3], in assay [4], in assay [5] and in assay [6] was above 100 µM in each case. Also, in [7], the TGI is above 100 µM.

Turning to `O=C(CCc1nc(=S)[nH][nH]1)Nc1cc(Cl)ccc1Cl`, the TGI in assay [1], in assay [2], in [3], in assay [4], in assay [5] and in assay [6] was above 100 µM each time. Also, the TGI in assay [7] is above 100 µM.

For `CCN(CC)CCNc1c2ccccc2nc2cccc([N+](=O)[O-])c12`, the TGI is 0.00373 µM in assay [8]; 0.0661 µM in assay [9]; 0.0935 µM and 0.0335 µM in [1]; 0.0843 µM in assay [2]; 0.0332 µM in assay [3]; 0.0409 µM in [5]. Also, in assay [7], the TGI amounted to 0.0553 µM. Besides, the figures for the GI50 in assay [1], in assay [3] and in assay [5] were 0.0117 µM, 0.0107 µM and 0.0156 µM, respectively.

Turning to `C/C(=C1/N=C(c2cc([N+](=O)[O-])ccc2Cl)N(c2ccc(Br)cc2)C1=O)c1ccc(N(CCC#N)CCC#N)cc1C`, the TGI was 27.2 µM in assay [1]; above 100 µM in assay [2]; above 100 µM in assay [3]; above 100 µM in [4]; 92.3 µM in assay [5]; 32.2 µM in [6]. The TGI in assay [7] is above 100 µM.

`O=C(Nc1cccc(C(F)(F)F)c1)C(=O)C(C(=O)c1ccc(Cl)c(Cl)c1)C1OC(=O)c2ccccc21` (stereo not given): the TGI in assay [1] was 78.6 µM; in [2] it was above 100 µM; in [3], above 100 µM; in [4], above 100 µM; in assay [5], 54 µM; in [6], above 100 µM. Further, the TGI in assay [7] is above 100 µM.

On to `O=C(NCCCCCCCCCCCCNC(=O)c1cnc2ccccc2n1)c1cnc2ccccc2n1`, for which the TGI in assay [1] is above 100 µM; in [2], above 100 µM; in [3] it was above 100 µM; in assay [4], 79.4 µM; in [5], above 100 µM; in [6] it was above 100 µM. The TGI in [7] was above 100 µM.

For the molecule `CCOC(=O)c1oc2c(OC)ccc3c2c1CCC3`, the TGI in assay [1], in assay [2], in assay [3], in assay [5], in [6] and in assay [7] was above 100 µM each time.

For `NC(Cc1ccccc1)C(=O)OCN1C(=O)C2C3C=CC(C2C1=O)C1C2C(=O)N(COC(=O)C(N)Cc4ccccc4)C(=O)C2C31` (stereo not given), the TGI in assay [1] is 40.4 µM and 33.8 µM; in [2], 39.7 µM and 37.9 µM; in assay [4], > 100 µM and 52.1 µM; in assay [5], 38.4 µM; in [6], 51.4 µM and 60.6 µM; in assay [7], 67.2 µM and 51.5 µM. Moreover, the GI50 in assay [4] is 45.3 µM and 20 µM; in assay [5] it was 21.6 µM.

In the case of `O=C1NC(=O)C(C(=O)C(=O)Nc2cc(Cl)ccc2Cl)C(=O)N1`, the TGI in assay [1], in [2], in assay [3], in assay [5], in [6] and in [7] was above 100 µM throughout.

For the molecule `O=C1c2c(O)cccc2C(C(=O)CCCCCC(=O)C2c3cccc(O)c3C(=O)c3c(O)cccc32)c2cccc(O)c21`, the GI50 was 3.16 µM in assay [1]; 7.58 µM in assay [2]; 2.99 µM in [3]; 7.95 µM in [4]; 2.4 µM in assay [5]; 7.67 µM in [6]. Moreover, the GI50 in assay [7] is 15.4 µM. The TGI in [1] is 1.29 µM and 9.22 µM; in [2], 2.78 µM and 14.2 µM; in assay [3], 7.98 µM and 13.6 µM; in assay [4], 4.28 µM and 14.9 µM; in assay [5], 2.5 µM and 9.2 µM; in [6], 8.88 µM and 16.7 µM. In addition, the TGI in assay [7] was 13.1 µM and 47.6 µM.

As for `CCCCCCCCSC(=O)NCCCC`, the TGI in assay [2] was above 100 µM; in [3], above 100 µM; in [4] it was above 100 µM; in assay [5] it was above 100 µM; in assay [6], above 100 µM; in assay [7], 62.5 µM.

As to `CC(Oc1cc2oc(=O)cc(-c3ccccc3)c2cc1Cl)C(=O)O` (stereo not given), the TGI in assay [1], in assay [2], in assay [3], in [4], in [5] and in assay [6] was above 100 µM each time. In assay [7], this molecule yielded a TGI above 100 µM.

As to `Cc1cc(=O)oc2c(C3=NN(C=O)C(c4ccccc4)C3)c(O)ccc12` (stereo not given), the TGI in assay [8], in assay [9], in assay [1], in assay [2], in [3] and in assay [4] was above 100 µM throughout. For the same molecule, the TGI in [5], in [6] and in [7] was above 100 µM in each case.

On to `NCCOc1ccc(/C(=C(/Cl)c2ccccc2)c2ccccc2)cc1`, for which the TGI in [1] worked out at 27.1 µM; in [2] it was 20 µM; in assay [3] it was 26.3 µM; in assay [5], 23.8 µM; in assay [6] it was 33.3 µM; in assay [7] it was 19.9 µM.

With `Cc1ccccc1/C=C/c1csnn1`, the TGI in [1] is above 56 µM; in assay [2] it was above 100 µM; in assay [3] it was above 100 µM; in assay [4], above 100 µM; in [5] it was above 100 µM; in assay [6] it was above 74.3 µM. Besides, the TGI in assay [7] is above 100 µM.

Turning to `CCCCC(C(=O)C(=O)Nc1ccc(C)cc1C)C(=O)C(C)C` (stereo not given), the TGI in [1], in assay [2], in assay [3], in assay [4], in assay [5] and in [6] was above 100 µM each time. The TGI in [7] is above 100 µM.

Consider `CC(=O)Nc1ccccc1-c1nc2ccccc2nc1-c1ccccc1`, for which the TGI in assay [1], in assay [2], in assay [4], in assay [5], in assay [6] and in assay [7] was above 100 µM throughout.

In the case of `C[N+]1=C(c2cccnc2/C=N/O)OCC1(C)C`, the TGI in [1], in assay [2], in assay [4], in assay [5], in assay [6] and in assay [7] was above 100 µM each time.
